Laboratory results from paper PMC3024420 (PLoS ONE, 2011).
“Also recorded” adds a separate entry of the source. Where no end group is shown, it is not given here.

Legend:
[1] = tested on: PBMCs; conditions: 35 µg/ml with or without 1% SP; n = 3
Method: (§1) Cells were then washed, and resuspended in fresh media with sample treatments for 5–7 days. Supernatants were collected on alternate days, and cells in culture were resuspended in sample or media alone. To ensure cell viability, standard trypan blue dye exclusion assays were performed. To quantify viral inhibition, the amount of p24gag was measured in cell supernatants with an ELISA (PerkinElmer, Waltham, MA, USA).
(§2) The antiviral, metabolic, and cytotoxicity experiments were performed at least three times, and each of the assays were performed in triplicate or quadruplicate. For the TZM-bl antiviral assays the infected vehicle-only controls were averaged and set as 100% infection. For the PM1 and PBMC antiviral assays, p24 ELISA quantification established the infected vehicle-only control as 100% infection. […] Individual treatments were analyzed by either one-way ANOVA with Tukey's multiple comparisons post-test or two-tailed unpaired t-test.

[2] = tested on: PM1 cells; conditions: 35 µg/ml with or without 1% SP; n = 3
Method: as §1, §2

[3] = tested on: TZM-bl cells; experiment: MTT metabolic assay; format: cell-based; conditions: cells treated for 24 h; peptides 35 µg/ml, SP 1%
Method: (§3) All treated cells were lysed using a Bright Glo luciferase system (Promega, Madison, WI, USA), and the ability to prevent HIV-1 infection was measured as a percent reduction in luciferase (relative light units or RLU) compared to the positive viral control (media and virus only). Metabolic activity of the cells was verified by a tetrazolium-based (MTT) assay according to manufacturer's instructions (R&D Systems, Minneapolis, MN, USA), while cytotoxicity was measured using the standard trypan blue dye exclusion assay.

[4] = tested on: TZM-bl cells; format: cell-based; conditions: 24 h of treatment; peptides 35 µg/ml, SP 1%
Method: as §3

[5] = 300 rpm, 37°C, Tricine-SDS gel; for stability in SP containing protease inhibitor (PI) cocktail: SP spiked with broad spectrum PI cocktail, 1–24 h; for time to complete degradation / time to partial degradation: three volumes peptide (1 mg/ml) with one volume whole SP, Coomassie blue
Method: (§4) All incubation sample tubes were pulsed briefly in a microcentrifuge, and immediately stored at −20°C. Samples were electrophoresed on mini-16% Tricine-SDS gels, and stained.

[6] = tested on: trypsin; experiment: trypsin diluted with sterile PBS; conditions: 37°C, up to 24 h
[7] = SP spiked with a broad spectrum protease inhibitor (PI); conditions: human, 37°C, up to 24 h
[8] = biological target: prostate-specific antigen (PSA) (Homo sapiens, UniProt P07288)
Sequence of prostate-specific antigen (PSA) (P07288 25-261): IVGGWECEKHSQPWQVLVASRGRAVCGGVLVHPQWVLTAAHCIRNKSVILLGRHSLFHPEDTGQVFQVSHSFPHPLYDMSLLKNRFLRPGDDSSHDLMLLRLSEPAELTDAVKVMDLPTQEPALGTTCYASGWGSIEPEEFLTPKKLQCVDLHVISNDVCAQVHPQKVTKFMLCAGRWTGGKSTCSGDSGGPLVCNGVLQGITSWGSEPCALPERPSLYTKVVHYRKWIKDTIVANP
Method: as §4
(§5) Digested peptide fragments from protease incubations underwent MALDI-TOF/TOF MS/MS analysis using the Model Ultraflex III mass spectrometer (Bruker Daltonics, Billerica, MA, USA) equipped with LIFT capability. Samples were desalted using C18 ZipTips (Millipore, Bedford, MA, USA) and were analyzed in positive reflector mode. External calibration was performed using a mass standards kit for proteomics analyzer (Applied Biosystems). Samples also underwent analysis via nano-LC ESI-TOF MS/MS using the maXis ESI-Q-TOF (Bruker Daltonics) mass spectrometer online with the Dionex model U3000 nanobore HPLC [28]. Data were analyzed with the Sprot database using the Bruker ProteinScape program version 2.1 and Mascot program version 2.2 with enzyme setting to semiTrypsin.

[9] = tested on: trypsin
Method: as §4, §5

[10] = biological target: prostasin (Homo sapiens, UniProt Q16651)
Sequence of prostasin (Q16651 33-343): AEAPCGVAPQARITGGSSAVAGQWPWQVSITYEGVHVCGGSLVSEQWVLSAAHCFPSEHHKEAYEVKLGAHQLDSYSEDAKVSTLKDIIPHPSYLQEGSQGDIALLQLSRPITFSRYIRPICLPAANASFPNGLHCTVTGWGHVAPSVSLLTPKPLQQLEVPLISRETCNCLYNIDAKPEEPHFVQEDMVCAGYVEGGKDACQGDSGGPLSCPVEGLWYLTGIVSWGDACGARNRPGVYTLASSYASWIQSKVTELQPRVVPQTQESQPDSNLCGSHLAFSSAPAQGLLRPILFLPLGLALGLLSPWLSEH
Method: as §4, §5

[11] = biological target: matriptase (Homo sapiens, UniProt Q9Y5Y6)
Sequence of matriptase (Q9Y5Y6 whole entry): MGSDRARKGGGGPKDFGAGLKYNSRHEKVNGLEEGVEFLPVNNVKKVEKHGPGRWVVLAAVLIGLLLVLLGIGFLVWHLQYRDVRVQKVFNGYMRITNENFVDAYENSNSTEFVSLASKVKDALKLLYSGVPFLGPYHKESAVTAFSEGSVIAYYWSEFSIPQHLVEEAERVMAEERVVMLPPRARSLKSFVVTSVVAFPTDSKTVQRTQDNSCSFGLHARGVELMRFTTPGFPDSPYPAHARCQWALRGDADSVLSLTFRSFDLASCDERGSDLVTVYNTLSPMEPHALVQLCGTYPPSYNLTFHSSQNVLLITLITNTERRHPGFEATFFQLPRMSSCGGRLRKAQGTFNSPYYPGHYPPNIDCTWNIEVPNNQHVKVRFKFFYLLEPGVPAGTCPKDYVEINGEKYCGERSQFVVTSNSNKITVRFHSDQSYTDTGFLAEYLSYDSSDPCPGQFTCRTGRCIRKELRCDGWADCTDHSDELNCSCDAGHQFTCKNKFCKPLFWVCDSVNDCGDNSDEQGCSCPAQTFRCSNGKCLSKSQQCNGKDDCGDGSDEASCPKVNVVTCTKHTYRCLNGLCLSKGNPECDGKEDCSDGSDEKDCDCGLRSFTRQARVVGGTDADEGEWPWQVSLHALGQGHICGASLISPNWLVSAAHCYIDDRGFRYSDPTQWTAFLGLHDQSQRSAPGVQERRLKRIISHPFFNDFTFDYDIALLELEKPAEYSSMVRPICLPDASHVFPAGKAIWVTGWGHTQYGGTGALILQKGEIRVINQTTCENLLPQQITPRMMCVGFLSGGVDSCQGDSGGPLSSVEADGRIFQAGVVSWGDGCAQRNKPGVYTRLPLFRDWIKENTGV
Method: as §4, §5

[12] = MALDI TOF/TOF MS/MS and nano-LC-MS/MS

Row | Sequence | cytotoxicity (trypan blue) [1] | cytotoxicity (trypan blue) [2] | metabolic activity of cells (MTT) [3] | cytotoxicity (trypan blue) [4] | stability in SP containing protease inhibitor (PI) cocktail [5] | time to complete degradation [5] [h] | time to partial degradation [5] [h] | fragment found [6] | not cleaved [7] | cleavage products by MS after incubation with PSA [8, 12] | degradation by PSA ([8]; PAP^286 54 µM (250 µg/ml), PSA 1 µM in PBS, 300 rpm, 24 h, 37°C, Tricine-SDS gel, silver stain) | PSA concentration giving complete degradation ([8]; PAP^286 54 µM, PSA 1.5 µM–[…], 300 rpm, 24 h, 37°C, Tricine-SDS gel, silver stain) [µM] | cleavage products by MS after incubation with trypsin [9, 12] | degradation by trypsin (positive control) ([9]; PAP^286 54 µM, trypsin 1 µM in PBS, 300 rpm, 24 h, 37°C, Tricine-SDS gel, silver stain) | cleavage products by MS after incubation with prostasin [10, 12] | degradation by prostasin ([10]; PAP^286 54 µM, prostasin 1 µM in PBS, 300 rpm, 24 h, 37°C, Tricine-SDS gel, silver stain) | cleavage products by MS after incubation with matriptase [11, 12] | degradation by matriptase ([11]; PAP^286 54 µM, matriptase 1 µM in PBS, 300 rpm, 24 h, 37°C, Tricine-SDS gel, silver stain)
1 | GIHKQKEKSRLQGGVLVNE [PAP^266] | No appreciable cytotoxicity | No appreciable cytotoxicity | no significant adverse effects to metabolic activity | lack of cytotoxicity | preservation | ≤ 3 | ≤ 1 |  |  |  |  |  |  |  |  |  |  | 
2 | GIHKQKEKSRLQGGVLVNEILNHMKRATQIPSYKKLIMY |  |  |  |  |  |  |  | SRLQGGVLVNEILNHMKR; also recorded: ATQIPSYK; also recorded: LQGGVLV; also recorded: RATQIPS; also recorded: ATQIPS; also recorded: LQGGVL; also recorded: LQGGV | preservation of the PAP peptides over time |  |  |  |  |  |  |  |  | 
3 | GIHKQKEKSRLQGGVLVNEILNHMKRATQIPSYKKLIMY [PAP^286] |  |  |  |  | preservation | ≤ 3 | ≤ 1 |  |  | detectable cleavage products | degradation of the PAP peptide with visible cleavage products | 0.75 | detectable cleavage products | completely degraded the peptide, with no cleavage products visualized | detectable cleavage products | did not effectively degrade | detectable cleavage products | degradation of the PAP peptide with visible cleavage products
